“Also recorded” adds a separate entry of the source.
Tested on: rat βGK promoter
Test: On-line monitoring of βGK promoter-driven GFP expression (prβGK.GFP) in transfected HIT-T15 cells, islet cells and islets
Type: cell-based, hamster (HIT-T15), rat (islet cells)
Details: for effect of inhibitor on insulin-stimulated βGK transcription / promoter activity: 5 mU/ml insulin 5 min, 150 nM BIM, 20 μM PD98059, 10 μM PD169316, 100 μM HNMPA-(AM)3, 400 nM AC, FIG. 5; for effect of inhibitor on insulin-stimulated βGK transcription / promoter activity / effect of inhibitor on insulin-stimulated βGK promoter activity (GFP) in the same co-transfected cell: 25 μM LY294002, 10 nM rapamycin; for effect of inhibitor on insulin-stimulated βGK promoter activity (GFP) in the same co-transfected cell: 5 mU/ml insulin, 400 nM AC, 100 μM HNMPA-(AM)3
Excerpt: Construction of prIns1.GFP has been described earlier (Leibiger et al., 1998a). Vector prIns1.DsRed was generated by exchanging the EGFP-expression cassette versus the DsRed-expression cassette obtained from pDsRed1-1 (Clontech). Plasmid prβGK.GFP (i.e. prβGK-278.GFP) was generated by exchanging the CAT-SV40pA-expression cassette of prβGK-278.CAT (Leibiger et al., 1994a) versus the EGFP-bGHpA-expression cassette obtained from pRcCMVI.GFP (Moede et al., 1999). […] All vector constructions were verified by DNA sequence analysis. […] Expression constructs pCMV5.PKBα, pCMV5.PKBαΔ308/437, pCMV5.PDK1 and pCMV5.PDK1-antisense were kindly provided by Drs. P. Cohen and D. R. Alessi (MRC Phosphorylation Unit, University of Dundee, UK).
HIT cells were reported to show glucose responsiveness at subphysiological concentrations between 0.1 and 2 mM (Sharma et al., 1995). HIT cells were grown in RPMI 1640 medium supplemented with 100 units/ml penicillin, 100 μg/ml streptomycin, 2 mM glutamine and 10% fetal calf serum at 5% CO2 and 37° C. Pancreatic islets were isolated from normally fed male Wistar rats and from mice by collagenase digestion. Isolated islets were incubated overnight at 5% CO2 and 37° C. in RPMI 1640 medium, supplemented as described above. Transfection of HIT-T15 and islet cells was performed overnight by the lipofectamine technique in RPMI 1640 medium, without serum and antibiotics. For on-line monitoring, cells were grown and transfected on 24-mm glass coverslips. Following transfection, HIT cells were cultured for 12-18 h in RPMI 1640 medium containing 0.1 mM glucose, 10% fetal calf serum and supplemented as above. Before stimulation, islets and islet cells were incubated for 2 h in RPMI 1640 medium, supplemented as above but containing 3 mM glucose. All expression constructs were prepared using the Qiagen Plasmid Maxi Kit (Qiagen), except those used to produce the adenoviruses which where purified by ultracentrifugation via a CsCI-gradient (as described in Sambrook et al, 1989).
Islets were transduced with Ad.rβGK.GFP or Ad.CMV.GFP by incubating 50 islets with 1 ml virus-containing medium for 90 min at 37° C. and 5% CO2. Following transduction, islets were washed 3 times with PBS and cultured further in RPMI 1640 medium. Islets were stimulated 40-72 h after transduction, as described below and analyzed by laser-scanning confocal microscopy.
All experiments were performed in RPMI 1640 medium, supplemented as above. Protein kinase inhibitors, antibodies or nifedipine were added to the culture medium 30 min prior to stimulation and were kept in the medium throughout stimulation. After stimulation islets, islet cells and HIT cells were cultured further at substimulatory glucose concentrations (0.1 mM for HIT cells and 3 mM for islets and islet cells). For RNA-analysis, islets and cells were harvested 60 min after start of stimulation, if not indicated otherwise. For analysis of protein kinase activities or tyrosine phosphorylation, cells were harvested immediately following stimulation.
Detection of fluorescence by digital imaging fluorescence microscopy was performed as described previously (Leibiger et al., 1998a; Leibiger et al., 1998b). Briefly, transfected cells were grown on 24-mm glass coverslips. After stimulation the coverslips were placed into a perifusion chamber which was mounted on an inverted microscope (Zeiss Axiovert 135TV). Temperature was kept at 37° C. and the cells were perfused with RPMI 1640 medium. The objective lens used was a Zeiss-Fluar ×40/1.30 oil Imm Korr. Fluorescence imaging was performed with a cooled charged-coupled device camera (CH250 with KAF 1400, Photometrics, Tucson, Ariz.) connected to an imaging system (Inovision) with fluorescence excitation from a SPEX fluorolog-2 CM1T11I spectrofluorometer (Spex Industries).

| Compound | βGK promoter-driven GFP fluorescence upon insulin stimulation (5 mU insulin per ml for 5 min, substimulatory glucose) | amount of exogenous insulin required to gain an effect on βGK promoter activation (transfected HIT-T15 cells, supplemented culture medium (FIG. 4B)) [μU per ml] | effect of inhibitor on insulin-stimulated βGK transcription / promoter activity | effect of inhibitor on insulin-stimulated βGK promoter activity (GFP) in the same co-transfected cell |
| --- | --- | --- | --- | --- |
| insulin | increase; also recorded: elevation | 20 |  |  |
| CC(=O)OCOC(c1ccc2ccccc2c1)P(=O)(OCOC(C)=O)OCOC(C)=O (stereo not drawn) [HNMPA-(AM)3] |  |  | sensitive | abolished |
| autocamtide-2 related inhibitory peptide |  |  | altered neither | no effect |

— patent US7601687B2, “Mechanism for identifying drugs for the treatment of type II diabetes” (BioCrine AB, priority 2006, dated 2009)
